Laboratory results taken from patent publication US9340590B2 (priority 2011, dated 2016).
Positions of bridges follow the written chain, without caps; N, C: chain ends. Non-standard residues stand in square brackets, D forms with d. Residues, ends and D or L forms follow the SMILES beside them. Trp(1-Me) = Cn1cc(C[C@H](N)C(=O)O)c2ccccc21; Cit = NC(=O)NCCC[C@H](N)C(=O)O; Dab = NCC[C@H](N)C(=O)O

Tests used:
hNav1.7 = hNav1.7 (Homo sapiens, UniProt Q15858); test: cell-based; conditions: Nav1.7 Use IC50
Sequence of hNav1.7 (Q15858 whole entry, looked up): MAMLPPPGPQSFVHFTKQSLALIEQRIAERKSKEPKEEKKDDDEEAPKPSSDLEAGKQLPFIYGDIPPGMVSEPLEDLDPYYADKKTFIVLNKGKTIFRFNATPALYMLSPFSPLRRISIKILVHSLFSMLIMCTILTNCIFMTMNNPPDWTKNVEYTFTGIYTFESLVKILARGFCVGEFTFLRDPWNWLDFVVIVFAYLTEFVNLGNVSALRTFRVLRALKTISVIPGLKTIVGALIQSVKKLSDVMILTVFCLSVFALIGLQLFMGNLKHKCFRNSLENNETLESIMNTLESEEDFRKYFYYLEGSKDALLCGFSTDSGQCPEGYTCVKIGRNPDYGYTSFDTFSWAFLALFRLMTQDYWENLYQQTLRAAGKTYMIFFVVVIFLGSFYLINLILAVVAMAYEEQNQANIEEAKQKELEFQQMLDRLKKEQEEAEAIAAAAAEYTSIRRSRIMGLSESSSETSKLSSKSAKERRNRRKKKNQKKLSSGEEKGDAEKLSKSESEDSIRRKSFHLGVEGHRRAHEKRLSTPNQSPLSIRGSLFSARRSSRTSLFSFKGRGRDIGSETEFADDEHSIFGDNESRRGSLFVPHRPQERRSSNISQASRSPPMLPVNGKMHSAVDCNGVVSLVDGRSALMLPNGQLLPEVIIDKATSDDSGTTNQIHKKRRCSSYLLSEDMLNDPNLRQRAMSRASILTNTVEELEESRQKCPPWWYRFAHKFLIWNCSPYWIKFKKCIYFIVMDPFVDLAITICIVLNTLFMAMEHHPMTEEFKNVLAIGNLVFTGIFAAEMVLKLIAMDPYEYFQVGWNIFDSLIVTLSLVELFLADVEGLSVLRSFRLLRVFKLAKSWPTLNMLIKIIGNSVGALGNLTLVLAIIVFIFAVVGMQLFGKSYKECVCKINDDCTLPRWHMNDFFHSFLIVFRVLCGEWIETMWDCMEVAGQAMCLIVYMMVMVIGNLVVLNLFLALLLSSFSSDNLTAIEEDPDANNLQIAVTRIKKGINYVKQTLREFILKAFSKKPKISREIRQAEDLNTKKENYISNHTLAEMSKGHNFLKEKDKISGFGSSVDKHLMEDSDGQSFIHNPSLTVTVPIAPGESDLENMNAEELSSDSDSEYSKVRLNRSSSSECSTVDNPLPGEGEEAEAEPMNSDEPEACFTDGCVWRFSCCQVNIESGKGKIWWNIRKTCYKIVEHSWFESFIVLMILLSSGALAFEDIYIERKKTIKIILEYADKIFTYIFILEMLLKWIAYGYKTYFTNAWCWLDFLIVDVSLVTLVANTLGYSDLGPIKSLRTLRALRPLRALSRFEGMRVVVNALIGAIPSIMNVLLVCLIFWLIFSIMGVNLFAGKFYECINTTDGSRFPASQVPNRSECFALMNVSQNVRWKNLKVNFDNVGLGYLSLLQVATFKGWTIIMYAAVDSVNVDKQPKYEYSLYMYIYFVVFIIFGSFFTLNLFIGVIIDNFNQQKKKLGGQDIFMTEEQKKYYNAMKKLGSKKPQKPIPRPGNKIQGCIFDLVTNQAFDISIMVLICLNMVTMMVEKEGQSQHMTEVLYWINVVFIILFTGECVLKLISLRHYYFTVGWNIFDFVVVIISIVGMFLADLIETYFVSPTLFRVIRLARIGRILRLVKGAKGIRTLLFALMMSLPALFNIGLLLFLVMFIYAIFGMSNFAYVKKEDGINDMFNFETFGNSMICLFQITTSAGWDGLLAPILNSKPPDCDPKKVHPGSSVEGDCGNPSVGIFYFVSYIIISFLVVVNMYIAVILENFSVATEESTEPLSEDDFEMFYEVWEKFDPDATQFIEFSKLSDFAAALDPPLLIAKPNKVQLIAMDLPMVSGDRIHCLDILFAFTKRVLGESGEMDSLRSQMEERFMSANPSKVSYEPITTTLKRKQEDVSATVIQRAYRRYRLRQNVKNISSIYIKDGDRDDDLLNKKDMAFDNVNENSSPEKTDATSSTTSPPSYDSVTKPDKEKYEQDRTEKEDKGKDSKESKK

hNav1.5 = hNav1.5 (Homo sapiens, UniProt Q14524); test: cell-based
Sequence of hNav1.5 (Q14524 whole entry, looked up): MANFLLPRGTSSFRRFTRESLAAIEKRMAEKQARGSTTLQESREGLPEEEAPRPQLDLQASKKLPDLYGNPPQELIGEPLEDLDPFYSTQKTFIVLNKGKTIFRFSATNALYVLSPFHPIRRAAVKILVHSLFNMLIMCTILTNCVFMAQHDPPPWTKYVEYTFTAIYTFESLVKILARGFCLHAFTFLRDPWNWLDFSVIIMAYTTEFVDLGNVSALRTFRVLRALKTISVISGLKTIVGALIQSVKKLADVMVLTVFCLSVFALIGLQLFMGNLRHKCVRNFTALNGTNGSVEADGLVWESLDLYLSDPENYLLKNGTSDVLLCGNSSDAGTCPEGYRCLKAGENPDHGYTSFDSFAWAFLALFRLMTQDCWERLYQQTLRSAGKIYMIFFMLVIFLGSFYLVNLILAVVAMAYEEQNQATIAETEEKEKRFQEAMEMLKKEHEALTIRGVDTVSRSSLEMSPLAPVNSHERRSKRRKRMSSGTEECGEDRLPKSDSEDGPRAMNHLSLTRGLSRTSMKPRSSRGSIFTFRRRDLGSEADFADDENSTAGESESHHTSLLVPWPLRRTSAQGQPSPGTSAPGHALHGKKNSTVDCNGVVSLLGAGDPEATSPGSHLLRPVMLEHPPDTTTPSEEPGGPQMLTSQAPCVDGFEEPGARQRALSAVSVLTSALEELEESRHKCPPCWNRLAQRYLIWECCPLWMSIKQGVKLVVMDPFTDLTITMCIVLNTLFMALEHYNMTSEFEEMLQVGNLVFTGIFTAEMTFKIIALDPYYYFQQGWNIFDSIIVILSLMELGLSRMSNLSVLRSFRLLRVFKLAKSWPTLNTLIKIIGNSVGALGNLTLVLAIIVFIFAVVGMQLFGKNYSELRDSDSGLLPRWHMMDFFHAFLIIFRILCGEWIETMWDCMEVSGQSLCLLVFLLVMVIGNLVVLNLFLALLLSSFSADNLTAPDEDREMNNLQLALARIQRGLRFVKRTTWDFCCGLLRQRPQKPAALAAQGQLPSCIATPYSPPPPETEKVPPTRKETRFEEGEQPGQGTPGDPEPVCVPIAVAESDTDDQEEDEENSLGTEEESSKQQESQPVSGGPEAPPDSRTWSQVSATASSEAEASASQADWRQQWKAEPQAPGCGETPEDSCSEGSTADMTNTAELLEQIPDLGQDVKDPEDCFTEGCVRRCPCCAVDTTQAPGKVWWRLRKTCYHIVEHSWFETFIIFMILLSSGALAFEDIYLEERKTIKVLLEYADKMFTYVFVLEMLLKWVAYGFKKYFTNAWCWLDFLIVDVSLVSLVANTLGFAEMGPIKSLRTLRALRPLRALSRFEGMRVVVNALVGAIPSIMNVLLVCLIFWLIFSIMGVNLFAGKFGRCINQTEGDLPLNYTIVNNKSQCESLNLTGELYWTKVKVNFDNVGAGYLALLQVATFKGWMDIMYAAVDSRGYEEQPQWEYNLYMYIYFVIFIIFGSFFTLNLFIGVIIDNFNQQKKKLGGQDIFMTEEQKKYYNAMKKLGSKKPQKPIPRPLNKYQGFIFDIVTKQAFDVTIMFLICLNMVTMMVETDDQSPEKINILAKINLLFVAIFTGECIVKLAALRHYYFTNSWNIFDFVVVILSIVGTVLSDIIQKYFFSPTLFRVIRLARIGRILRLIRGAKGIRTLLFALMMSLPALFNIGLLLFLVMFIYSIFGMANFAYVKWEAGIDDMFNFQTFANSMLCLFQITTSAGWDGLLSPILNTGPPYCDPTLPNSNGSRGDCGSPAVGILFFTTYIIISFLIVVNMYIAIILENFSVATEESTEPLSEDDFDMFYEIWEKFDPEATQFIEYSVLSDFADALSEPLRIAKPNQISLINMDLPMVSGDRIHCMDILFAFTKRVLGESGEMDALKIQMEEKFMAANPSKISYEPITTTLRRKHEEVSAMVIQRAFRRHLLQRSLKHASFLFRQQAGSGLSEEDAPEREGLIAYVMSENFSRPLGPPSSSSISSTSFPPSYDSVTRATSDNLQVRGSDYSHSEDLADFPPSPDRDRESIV

CC[C@H](C)[C@@H]1NC(=O)[C@@H]2CSSC[C@@H]3NC(=O)[C@H](C(C)C)NC(=O)[C@H](CC(C)C)NC(=O)[C@H](CC(N)=O)NC(=O)[C@@H]4CCCN4C(=O)[C@H](CCCNC(=N)N)NC(=O)[C@H](CSSC[C@H](NC(=O)[C@@H](N)CC(=O)O)C(=O)N[C@@H](CC(C)C)C(=O)NCC(=O)N[C@@H](C)C(=O)N[C@@H](Cc4ccccc4)C(=O)N[C@@H](CCCNC(=N)N)C(=O)N[C@@H](CCCCN)C(=O)N2)NC(=O)[C@H](CSSC[C@@H](C(=O)N[C@@H](CCCCN)C(=O)N[C@@H](Cc2ccc(O)cc2)C(=O)N[C@H](C(=O)N[C@@H](Cc2ccccc2)C(N)=O)C(C)C)NC(=O)[C@H](Cc2c[nH]c4ccccc24)NC(=O)[C@H](CCCCN)NC(=O)[C@H](Cc2c[nH]cn2)NC(=O)[C@H]([C@@H](C)O)NC(=O)[C@H](C)NC(=O)[C@H](CO)NC3=O)NC(=O)[C@H](CCCCN)NC(=O)[C@H](CC(=O)O)NC(=O)[C@H](CC(N)=O)NC(=O)[C@H](CC(=O)O)NC(=O)[C@@H]2CCCN2C1=O [[Ala5,25;Phe6]GpTx-1(1-34)] (H-DCLGAFRKCIPDNDKCCRPNLVCSATHKWCKYVF-NH2; disulfide 2-17, 9-23, 16-30) was tested, and the IC50 (hNav1.7) was 86 nM and the IC50 (hNav1.5) was over 10000 nM.

CC[C@H](C)[C@@H]1NC(=O)[C@@H]2CSSC[C@@H]3NC(=O)[C@H](C(C)C)NC(=O)[C@H](CC(C)C)NC(=O)[C@H](CC(N)=O)NC(=O)[C@@H]4CCCN4C(=O)[C@H](CCCNC(=N)N)NC(=O)[C@H](CSSC[C@H](NC(=O)[C@@H](N)CC(=O)O)C(=O)N[C@@H](CC(C)C)C(=O)NCC(=O)N[C@@H](C)C(=O)N[C@@H](Cc4cn(C)c5ccccc45)C(=O)N[C@@H](CCCNC(=N)N)C(=O)N[C@@H](CCCCN)C(=O)N2)NC(=O)[C@H](CSSC[C@@H](C(=O)N[C@@H](CCCCN)C(=O)N[C@@H](Cc2ccc(O)cc2)C(=O)N[C@H](C(=O)N[C@@H](Cc2ccccc2)C(N)=O)C(C)C)NC(=O)[C@H](Cc2c[nH]c4ccccc24)NC(=O)[C@H](CCCCN)NC(=O)[C@H](Cc2c[nH]cn2)NC(=O)[C@H]([C@@H](C)O)NC(=O)[C@H](CCCNC(=N)N)NC(=O)[C@H](CO)NC3=O)NC(=O)[C@H](CCCCN)NC(=O)[C@H](CC(=O)O)NC(=O)[C@H](CC(N)=O)NC(=O)[C@H](CC(=O)O)NC(=O)[C@@H]2CCCN2C1=O [[Ala5;1′NMeW6]GpTx-1(1-34)] showed an IC50 (hNav1.7) of 51 nM and an IC50 (hNav1.5) of over 10000 nM.

CC[C@H](C)[C@@H]1NC(=O)[C@@H]2CSSC[C@@H]3NC(=O)[C@H](C(C)C)NC(=O)[C@H](CC(C)C)NC(=O)[C@H](CC(N)=O)NC(=O)[C@@H]4CCCN4C(=O)[C@H](CCCNC(=N)N)NC(=O)[C@H](CSSC[C@H](NC(=O)[C@@H](N)CC(=O)O)C(=O)N[C@@H](CC(C)C)C(=O)NCC(=O)N[C@@H](C)C(=O)N[C@@H](CCSC)C(=O)N[C@@H](CCCNC(=N)N)C(=O)N[C@@H](CCCCN)C(=O)N2)NC(=O)[C@H](CSSC[C@@H](C(=O)N[C@@H](CCCCN)C(=O)N[C@@H](Cc2cn(C)c4ccccc24)C(=O)N[C@H](C(=O)N[C@@H](Cc2ccccc2)C(N)=O)C(C)C)NC(=O)[C@H](Cc2c[nH]c4ccccc24)NC(=O)[C@H](CCCCN)NC(=O)[C@H](Cc2c[nH]cn2)NC(=O)[C@H]([C@@H](C)O)NC(=O)[C@H](CCCNC(=N)N)NC(=O)[C@H](CO)NC3=O)NC(=O)[C@H](CCCCN)NC(=O)[C@H](CC(=O)O)NC(=O)[C@H](CC(N)=O)NC(=O)[C@H](CC(=O)O)NC(=O)[C@@H]2CCCN2C1=O [[Ala5;1′NMeW32]GpTx-1(1-34)] (H-DCLGAMRKCIPDNDKCCRPNLVCSRTHKWCK[Trp(1-Me)]VF-NH2; disulfide 2-17, 9-23, 16-30) gave an IC50 (hNav1.7) of 18 nM and an IC50 (hNav1.5) of over 10000 nM.

Compound CSCC[C@@H]1NC(=O)[C@H](C)NC(=O)CNC(=O)[C@H](CC(C)C)NC(=O)[C@@H](NC(=O)[C@@H](N)CC(=O)O)CSSC[C@@H]2NC(=O)[C@@H]3CSSC[C@@H](C(=O)N[C@@H](CCCCN)C(=O)N[C@@H](Cc4ccc(O)cc4)C(=O)N[C@H](C(=O)N[C@@H](Cc4ccccc4)C(N)=O)C(C)C)NC(=O)[C@H](Cc4c[nH]c5ccccc45)NC(=O)[C@H](CCCCN)NC(=O)[C@H](Cc4c[nH]cn4)NC(=O)[C@H]([C@@H](C)O)NC(=O)[C@H](CCCNC(=N)N)NC(=O)[C@H](CO)NC(=O)[C@H](CSSC[C@H](NC(=O)[C@H](CCCCN)NC(=O)[C@H](CCCNC(=N)N)NC1=O)C(=O)N[C@@H](CC(=O)O)C(=O)N1CCC[C@H]1C(=O)N[C@@H](CCC(=O)O)C(=O)N[C@@H](CC(N)=O)C(=O)N[C@@H](CC(=O)O)C(=O)N[C@@H](CCCCN)C(=O)N3)NC(=O)[C@H](C(C)C)NC(=O)[C@H](CC(C)C)NC(=O)[C@H](CC(N)=O)NC(=O)[C@@H]1CCCN1C(=O)[C@H](CCCNC(=N)N)NC2=O [[Ala5;Asp10;Glu12]GpTx-1(1-34)] (H-DCLGAMRKCDPENDKCCRPNLVCSRTHKWCKYVF-NH2; disulfide 2-17, 9-23, 16-30) has an IC50 (hNav1.7) of 554 nM and an IC50 (hNav1.5) of over 10000 nM.

Compound CSCC[C@@H]1NC(=O)[C@H](C)NC(=O)CNC(=O)[C@H](CC(C)C)NC(=O)[C@@H](NC(=O)[C@@H](N)CC(=O)O)CSSC[C@@H]2NC(=O)[C@@H]3CSSC[C@@H](C(=O)N[C@@H](CCCCN)C(=O)N[C@@H](Cc4ccc(O)cc4)C(=O)N[C@H](C(=O)N[C@@H](Cc4ccccc4)C(N)=O)C(C)C)NC(=O)[C@H](Cc4c[nH]c5ccccc45)NC(=O)[C@H](CCCCN)NC(=O)[C@H](Cc4c[nH]cn4)NC(=O)[C@H]([C@@H](C)O)NC(=O)[C@H](CCCNC(=N)N)NC(=O)[C@H](CO)NC(=O)[C@H](CSSC[C@H](NC(=O)[C@H](CCCCN)NC(=O)[C@H](CCCNC(=N)N)NC1=O)C(=O)N[C@@H](CC(=O)O)C(=O)N1CCC[C@H]1C(=O)N[C@@H](CC(=O)O)C(=O)N[C@@H](CC(N)=O)C(=O)N[C@@H](CC(=O)O)C(=O)N[C@@H](CCCCN)C(=O)N3)NC(=O)[C@H](C(C)C)NC(=O)[C@H](CC(C)C)NC(=O)[C@H](CC(N)=O)NC(=O)[C@@H]1CCCN1C(=O)[C@H](CCCNC(=N)N)NC2=O [[Ala5;Asp10]GpTx-1(1-34)] (H-DCLGAMRKCDPDNDKCCRPNLVCSRTHKWCKYVF-NH2; disulfide 2-17, 9-23, 16-30) has an IC50 (hNav1.7) of 50 nM and an IC50 (hNav1.5) of over 10000 nM.

CC[C@H](C)[C@@H]1NC(=O)[C@@H]2CSSC[C@@H]3NC(=O)[C@H](C(C)C)NC(=O)[C@H](CC(C)C)NC(=O)[C@H](CC(N)=O)NC(=O)[C@@H]4CCCN4C(=O)[C@H](CCCNC(=N)N)NC(=O)[C@H](CSSC[C@H](NC(=O)[C@@H](N)CC(=O)O)C(=O)N[C@@H](CC(C)C)C(=O)NCC(=O)N[C@@H](C)C(=O)N[C@@H](CCSC)C(=O)N[C@@H](CCCNC(=N)N)C(=O)N[C@@H](CCCCN)C(=O)N2)NC(=O)[C@H](CSSC[C@@H](C(=O)N[C@@H](CCCCN)C(=O)N[C@@H](Cc2ccc(O)cc2)C(=O)N[C@H](C(=O)N[C@@H](Cc2ccccc2)C(N)=O)C(C)C)NC(=O)[C@H](Cc2c[nH]c4ccccc24)NC(=O)[C@H](CCCNC(N)=O)NC(=O)[C@H](Cc2c[nH]cn2)NC(=O)[C@H]([C@@H](C)O)NC(=O)[C@H](CCCNC(=N)N)NC(=O)[C@H](CO)NC3=O)NC(=O)[C@H](CCCCN)NC(=O)[C@H](CC(=O)O)NC(=O)[C@H](CC(N)=O)NC(=O)[C@H](CC(=O)O)NC(=O)[C@@H]2CCCN2C1=O [[Ala5;Cit28]GpTx-1(1-34)] (H-DCLGAMRKCIPDNDKCCRPNLVCSRTH[Cit]WCKYVF-NH2; disulfide 2-17, 9-23, 16-30) showed an IC50 (hNav1.7) of 30 nM and an IC50 (hNav1.5) of over 10000 nM.

Compound CC[C@H](C)[C@@H]1NC(=O)[C@@H]2CSSC[C@@H]3NC(=O)[C@H](C(C)C)NC(=O)[C@H](CC(C)C)NC(=O)[C@H](CC(N)=O)NC(=O)[C@@H]4CCCN4C(=O)[C@H](CCCNC(=N)N)NC(=O)[C@H](CSSC[C@H](NC(=O)[C@@H](N)CC(=O)O)C(=O)N[C@@H](CC(C)C)C(=O)NCC(=O)N[C@@H](C)C(=O)N[C@@H](CCSC)C(=O)N[C@@H](CCCNC(=N)N)C(=O)N[C@@H](CCCCN)C(=O)N2)NC(=O)[C@H](CSSC[C@@H](C(=O)N[C@@H](CCCCN)C(=O)N[C@@H](Cc2ccc(O)cc2)C(=O)N[C@H](C(=O)N[C@@H](Cc2ccccc2)C(N)=O)C(C)C)NC(=O)[C@H](Cc2c[nH]c4ccccc24)NC(=O)[C@H](CCN)NC(=O)[C@H](Cc2c[nH]cn2)NC(=O)[C@H]([C@@H](C)O)NC(=O)[C@H](CCCNC(=N)N)NC(=O)[C@H](CO)NC3=O)NC(=O)[C@H](CCCCN)NC(=O)[C@H](CC(=O)O)NC(=O)[C@H](CC(N)=O)NC(=O)[C@H](CC(=O)O)NC(=O)[C@@H]2CCCN2C1=O [[Ala5;Dab28]GpTx-1(1-34)] (H-DCLGAMRKCIPDNDKCCRPNLVCSRTH[Dab]WCKYVF-NH2; disulfide 2-17, 9-23, 16-30) has an IC50 (hNav1.7) of 13 nM and an IC50 (hNav1.5) of over 10000 nM.

With CC[C@H](C)[C@@H]1NC(=O)[C@@H]2CSSC[C@@H]3NC(=O)[C@H](C(C)C)NC(=O)[C@H](CC(C)C)NC(=O)[C@H](CC(N)=O)NC(=O)[C@@H]4CCCN4C(=O)[C@H](CCCNC(=N)N)NC(=O)[C@H](CSSC[C@H](NC(=O)[C@@H](N)CC(=O)O)C(=O)N[C@@H](CC(C)C)C(=O)NCC(=O)N[C@@H](C)C(=O)N[C@@H](CCSC)C(=O)N[C@@H](CCCNC(=N)N)C(=O)N[C@@H](CCCCN)C(=O)N2)NC(=O)[C@H](CSSC[C@@H](C(=O)N[C@@H](CCCCN)C(=O)N[C@@H](Cc2ccc(O)cc2)C(=O)N[C@H](C(=O)N[C@@H](Cc2ccccc2)C(N)=O)C(C)C)NC(=O)[C@H](Cc2c[nH]c4ccccc24)NC(=O)[C@H](CCC(N)=O)NC(=O)[C@H](Cc2c[nH]cn2)NC(=O)[C@H]([C@@H](C)O)NC(=O)[C@H](CCCNC(=N)N)NC(=O)[C@H](CO)NC3=O)NC(=O)[C@H](CCCCN)NC(=O)[C@H](CC(=O)O)NC(=O)[C@H](CC(N)=O)NC(=O)[C@H](CC(=O)O)NC(=O)[C@@H]2CCCN2C1=O [[Ala5;Gln28]GpTx-1(1-34)] (H-DCLGAMRKCIPDNDKCCRPNLVCSRTHQWCKYVF-NH2; disulfide 2-17, 9-23, 16-30) the IC50 (hNav1.7) was 37 nM and the IC50 (hNav1.5) was over 10000 nM.
